In paper PMC11522691, “Structure of the turnover-ready state of an ancestral respiratory complex I” (Nature Communications, 2024):

Target: T1, P. denitrificans complex I (Pd-CI, Pd-CI-ND), ubiquinone-binding site (Paracoccus denitrificans, UniProt A1B487+A1B495+A1B497)
T1 construct: gene nuoH; native 18-subunit complex from P. denitrificans membranes, His6 tag on Nqo5 (NDUFS3), DDM-purified, reconstituted in MSP2N2 phospholipid nanodiscs; NDUFS2-Arg65 dimethylated; ND3 N-formylMet; with NADH-quinone oxidoreductase subunit 1 (subunit F); NADH-quinone oxidoreductase subunit 2 (subunit E); NADH-quinone oxidoreductase subunit 3 (subunit G); NADH-quinone oxidoreductase subunit 5 (subunit C); NADH-quinone oxidoreductase subunit 7 (subunit A); NADH-quinone oxidoreductase subunit 9 (subunit I); NADH-quinone oxidoreductase subunit 10 (subunit J); NADH-quinone oxidoreductase subunit 11 (subunit K); NADH-quinone oxidoreductase subunit 12 (subunit L); NADH-quinone oxidoreductase subunit 13 (subunit M); NADH-quinone oxidoreductase subunit 14 (subunit N); NADH dehydrogenase [ubiquinone] iron-sulfur protein 4 homologue; NADH dehydrogenase [ubiquinone] iron-sulfur protein 6 homologue; NADH dehydrogenase [ubiquinone]; 1 alpha subcomplex subunit 12 homologue; Protein-L-isoaspartate O-methyltransferase
Test: cryo-EM structure of the complex, […] Å
Details: closed resting state, oxidised; headgroup partially inserted near ND1-Arg38, Trp41, Met244, Lys295 and NDUFS7-Arg77; nanodiscs with added Q10

T1 sequence (A1B497 whole entry): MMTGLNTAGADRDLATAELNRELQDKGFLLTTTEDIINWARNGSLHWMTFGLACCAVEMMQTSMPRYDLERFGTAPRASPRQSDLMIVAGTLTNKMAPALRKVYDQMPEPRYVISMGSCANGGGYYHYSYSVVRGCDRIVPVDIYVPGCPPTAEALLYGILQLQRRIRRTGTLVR
T1 sequence (A1B495 whole entry): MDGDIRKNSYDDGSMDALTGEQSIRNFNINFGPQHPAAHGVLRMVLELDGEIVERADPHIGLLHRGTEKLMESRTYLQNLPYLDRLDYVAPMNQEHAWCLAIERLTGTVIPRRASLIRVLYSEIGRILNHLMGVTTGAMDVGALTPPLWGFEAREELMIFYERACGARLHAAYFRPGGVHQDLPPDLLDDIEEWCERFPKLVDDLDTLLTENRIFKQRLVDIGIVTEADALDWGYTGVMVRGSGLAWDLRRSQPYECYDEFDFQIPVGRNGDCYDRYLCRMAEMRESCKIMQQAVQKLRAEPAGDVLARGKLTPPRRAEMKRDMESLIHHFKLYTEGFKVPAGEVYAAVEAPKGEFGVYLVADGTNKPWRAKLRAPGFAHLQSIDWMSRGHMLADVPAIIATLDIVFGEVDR
T1 sequence (A1B487 whole entry): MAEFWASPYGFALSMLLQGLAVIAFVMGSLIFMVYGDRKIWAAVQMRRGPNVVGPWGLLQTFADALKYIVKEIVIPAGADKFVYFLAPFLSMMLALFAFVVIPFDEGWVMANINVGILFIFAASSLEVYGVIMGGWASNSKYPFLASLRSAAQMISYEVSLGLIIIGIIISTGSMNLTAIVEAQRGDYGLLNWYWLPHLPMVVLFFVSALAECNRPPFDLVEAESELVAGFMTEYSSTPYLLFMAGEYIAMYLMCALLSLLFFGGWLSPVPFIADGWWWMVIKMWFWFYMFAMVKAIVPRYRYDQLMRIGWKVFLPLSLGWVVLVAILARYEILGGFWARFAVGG

COC1=C(OC)C(=O)C(C/C=C(\C)CC/C=C(\C)CC/C=C(\C)CC/C=C(\C)CC/C=C(\C)CC/C=C(\C)CC/C=C(\C)CC/C=C(\C)CC/C=C(\C)CCC=C(C)C)=C(C)C1=O [ubiquinone-10]
cryo-EM structure of the complex, 2.3 Å: Density in the central polar region of the channel has been assigned to a partially inserted ubiquinone-10
